In assay [1] the test system is MDA-MB-436 cells. The experiment in a line: BRCA1 synthetic lethality assay, colony formation with crystal violet staining, BRCA1 mutant cells. The format is cell-based. The following applies: cultured for 21 days. As for the experimental part: (§1) In this experimental example, whether the compound according to the present invention had synthetic lethal efficacy with BRCA1 activity was tested by examining the colony formation of tumor cells. MDA-MB-436 cells (ATCC, #HTB-130), a triple-negative breast cancer cell line with reduced BRCA1 activity due to BRCA1 mutation, and MCF-10A cell line (ATCC, #CRL-10317), which has wild-type BRCA1/2 genes and is used as a model of normal breast cells, were cultured in their respective culture media (MDA-MB-436: L-15 +10 […] + 10% fetal bovine serum (FBS), MCF-10A: MEGM + 100 ng/mL cholera toxin), and then seeded in 6-well plates at a concentration of 10,000 cells per well for the MDA-MB-436 cells and 120 cells per well for the MCF-10A cell line. […] The crystal violet stained in the cells was extracted by treating the cells with 500 µL of 10% acetic acid for 20 minutes at room temperature for quantitative analysis. 150 µL of the extracted crystal violet was placed in two wells of a 96-well plate, and the absorbance was measured at 565 nm. The absorbance was quantified relative to the absorbance value of a blank sample containing only DMSO but not the compound of the present invention.

Assay [2] concerns MDA-MB-436. Briefly: Cell survival analysis (CellTiter-Glo, 10 days culture). Type of assay: cell-based. The following applies: Homo sapiens, 240 h; MDA-MB-436 cell line, cultured for 10 days, CellTiter-Glo; read-out: Cell growth IC50 grade. As for the experimental part:
In this experimental example, the cell growth inhibitory effect of compounds according to the present invention and positive control compounds in tumor cell lines was examined.
MDA-MB-436 (ATCC, #HTB-130) cell line was cultured in cell culture medium (Leibovitz's L-15 (GIBCO catalog no. 11415064) + 10 µg/mL insulin (Yeasen catalog no. 40112ES25) + 16 µg/mL glutathione (GIBCO catalog no. 25030-081) + 10% fetal bovine serum (FBS) (Excell Bio catalog no. FSP500)). 3,000 MDA-MB-436 cells were plated per well in a 96-well plate and cultured for 1 day at 37°C in 5% CO2. […] The cells were then cultured in a cell incubator for 10 days, and the cell culture medium containing the compound was replaced on the 5th day of culture. Cell survival rate was analyzed for luminescence using the Promega CellTiter-Glo Luminescent Cell Viability Assay Kit (Promega catalog number G7573), and the luminescence was measured using a PerkinElmer EnVision instrument. The percentage of cell growth inhibition rate was calculated from the measured relative luminescence unit (RLU) as follows. Inhibition rate = 1−((RLU compound−RLU blank)/(RLU control−RLU blank)) × 100 [formula]
On the technique in general: In ATP-based viability assays light output follows the ATP content of the culture.

In assay [3] the target is USP1 enzyme (Homo sapiens, UniProt O94782). The experiment in a line: Biochemical analysis of USP1 enzyme activity (ubiquitin-rhodamine 110 deubiquitination, fluorescence). Conditions: ubiquitin-rhodamine 110 substrate, 10 minutes pre-incubation, 30 minutes reaction at room temperature; read-out: Enzyme activity IC50 grade. As for the experimental part:
In this experimental example, the inhibitory effect of the compounds according to the present invention and the positive control compound on USP1 deubiquitinating activity was tested using a biochemical enzymatic assay. Ubiquitin-rhodamine 110 was used as a substrate for measuring deubiquitinating activity. This substrate compound is a substance in which rhodamine 110 is linked to the glycine residue at the C-terminus of ubiquitin by an amide bond. When this amide bond is cleaved by the deubiquitinating activity, a fluorescent signal is counted.
Subsequently, analytical buffer solution (50 mM hydroxyethylpiperazineethanesulfonic acid (HEPES) containing USP1 enzyme, 100 mM NaCl, 2 mM tris(2-carboxyethyl)phosphine (TCEP), and 100 µg/mL bovine serum albumin (BSA)) were added to each well of the plate and incubated at room temperature for 10 minutes. Subsequently, analytical y buffer solution containing ubiquitin-rhodamine 110 was added to each well and reacted at room temperature for 30 minutes.

The subject of assay [4] is MCF-10A cell line. The experiment in a line: BRCA1 synthetic lethality assay, colony formation with crystal violet staining, BRCA1/2 wild-type cells. The format is cell-based. As for the experimental part: as §1

Usually IC50 stands for the concentration at which inhibition is half-maximal.

USP1 enzyme, sequence (O94782 whole entry): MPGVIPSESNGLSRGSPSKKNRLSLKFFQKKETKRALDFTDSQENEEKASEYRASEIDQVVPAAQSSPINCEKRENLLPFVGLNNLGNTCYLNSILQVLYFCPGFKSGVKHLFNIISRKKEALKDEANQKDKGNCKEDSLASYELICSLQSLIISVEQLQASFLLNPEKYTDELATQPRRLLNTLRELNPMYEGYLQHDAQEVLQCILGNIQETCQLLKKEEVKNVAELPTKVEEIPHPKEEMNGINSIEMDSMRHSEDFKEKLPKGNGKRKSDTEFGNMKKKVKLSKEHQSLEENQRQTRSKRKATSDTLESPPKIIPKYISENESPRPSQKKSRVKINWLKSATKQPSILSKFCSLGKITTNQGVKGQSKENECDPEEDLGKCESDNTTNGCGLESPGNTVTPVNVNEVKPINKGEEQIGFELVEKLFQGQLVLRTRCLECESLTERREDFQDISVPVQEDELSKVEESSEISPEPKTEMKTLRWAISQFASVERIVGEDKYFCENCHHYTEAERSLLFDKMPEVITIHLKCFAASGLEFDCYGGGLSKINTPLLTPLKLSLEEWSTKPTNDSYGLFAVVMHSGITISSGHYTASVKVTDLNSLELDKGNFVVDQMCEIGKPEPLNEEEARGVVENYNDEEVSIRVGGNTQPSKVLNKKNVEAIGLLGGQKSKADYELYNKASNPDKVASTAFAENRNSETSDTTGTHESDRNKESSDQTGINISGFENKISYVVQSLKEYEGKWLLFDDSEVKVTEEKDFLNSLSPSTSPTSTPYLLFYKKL
USP1 enzyme, sequence (Q8TAF3 whole entry partner): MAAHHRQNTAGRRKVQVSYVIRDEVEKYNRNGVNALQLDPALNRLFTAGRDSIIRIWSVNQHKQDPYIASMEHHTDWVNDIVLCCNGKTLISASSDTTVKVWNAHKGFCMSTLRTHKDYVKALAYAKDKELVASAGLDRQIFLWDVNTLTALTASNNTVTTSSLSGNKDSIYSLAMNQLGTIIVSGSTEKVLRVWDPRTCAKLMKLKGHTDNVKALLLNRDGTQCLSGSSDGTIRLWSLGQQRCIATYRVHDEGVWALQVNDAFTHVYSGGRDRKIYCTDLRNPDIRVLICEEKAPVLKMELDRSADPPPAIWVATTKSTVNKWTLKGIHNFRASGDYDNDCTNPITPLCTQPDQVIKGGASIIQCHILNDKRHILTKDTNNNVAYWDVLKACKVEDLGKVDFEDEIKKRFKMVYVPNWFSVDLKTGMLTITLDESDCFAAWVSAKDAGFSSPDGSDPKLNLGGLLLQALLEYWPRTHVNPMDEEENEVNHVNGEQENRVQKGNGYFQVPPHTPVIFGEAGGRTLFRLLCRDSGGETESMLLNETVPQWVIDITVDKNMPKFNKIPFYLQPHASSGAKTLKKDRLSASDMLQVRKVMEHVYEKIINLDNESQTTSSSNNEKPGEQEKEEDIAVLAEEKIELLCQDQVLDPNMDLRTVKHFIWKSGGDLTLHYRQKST

On to `COc1cccc(C2CC2)c1-c1ncc(P(C)(C)=O)c(NCc2ccc(-c3nc(C(F)(F)F)cn3C)cc2)n1` [Example 1, (2-(2-cyclopropyl-6-methoxyphenyl)-4-((4-(1-methyl-4-(trifluoromethyl)-1H-imidazol-2-yl)benzyl)amino)pyrimidin-5-yl)dimethylphosphine oxide], for which the “crystal violet extraction amount” value in assay [1] (MDA-MB-436 cells with reduced BRCA1 activity, absorbance at 565 nm relative to DMSO blank, Fig. 1 A) is given as “less than one-fifth of that of the DMSO blank”; in assay [4] (MCF-10A cells with wild-type BRCA1/2, cultured for 21 days, absorbance at 565 nm relative to DMSO blank, Fig. 1 A) it was “no different from that of the DMSO blank”. Also, the colony formation result in assay [1] (MDA-MB-436 cells, compared with DMSO blank sample, Fig. 1 B) is “significantly reduced”; in assay [4] (MCF-10A cells, cultured for 21 days, compared with DMSO blank sample, Fig. 1 B), “formed colonies at a normal level”. Moreover, the IC50 in assay [2] was 100 to 500 nM; in assay [3], 50 to 100 nM.

The values above are taken from patent publication EP4737452A1, “NOVEL PYRIMIDINE DERIVATIVES” (Aigen Sciences Inc., priority 2023, dated 2025).
